Assay results reported in PMC5731860, “Novel allylated monocarbonyl analogs of curcumin induce mitotic arrest and apoptosis by reactive oxygen species-mediated endoplasmic reticulum stress and inhibition of STAT3” (Oncotarget, 2017).

Columns and labels:
HT-29 = assay: MTT assay, growth inhibition; format: cell-based; details: Homo sapiens, HT-29, 24 h
Method: (§1) First, we investigated whether allylated MAC alter the viability or have cytotoxic effects on cells in culture. We have performed MTT tetrazolium reduction assay following exposure of cancer cells (gastric cancer, BGC823 and SGC-7901; colon cancer, HT-29, HCT-116 and SW-480) and normal gastric epithelial cells (GES-1) to all 20 allylated MAC at a concentration of 20 μM for 24 h. […] In addition, we also found notable solubility and stability profile of these compounds (Supplementary Figure 1).
(§2) Cells were plated at a density of 8 × 10^3 cells/well in 96-well plates and allowed to attach overnight. Stock solutions of allylated MAC and curcumin were prepared in DMSO and diluted in culture media to obtain appropriate concentration. Cells were treated for 24 h and 48 h, following which, 20 μL of 5 mg/ml MTT reagent was added. Purple formazan product was dissolved by the addition of 100 μL DMSO to each well. Absorbance was then monitored at 490 nm using a plate reader (Molecular Device Spectra MAX190, USA). Percentage of cytotoxicity was determined using the following formula: Growth inhibition (%) = (OD of control−OD of test/OD of control×100%).

HCT-116 = assay: MTT assay, growth inhibition; format: cell-based, human; details: for % Of growth inhibition HCT-116: 20 μM, 24 h; for inhibition at 20 µM: Homo sapiens, HCT-116, 24 h
Method: as §1, §2

SW-480 = assay: MTT assay, growth inhibition; format: cell-based, human; details: for inhibition at 20 µM: Homo sapiens, SW480, 24 h; for % Of growth inhibition SW-480: 20 μM, 24 h
Method: as §1, §2

SGC-7901 = assay: MTT assay, growth inhibition / cell viability; format: cell-based; details: Homo sapiens; for inhibition at 20 µM: 24 h
Method: as §1, §2

BGC-823 = assay: MTT assay, growth inhibition / cell viability; format: cell-based; details: Homo sapiens; for inhibition at 20 µM: BGC-823, 20 μM, 24 h
Method: as §1, §2

GES-1 = assay: MTT assay, growth inhibition in normal gastric epithelial cells; format: cell-based, human; details: for inhibition at 20 µM: Homo sapiens, GES1, 24 h, normal gastric epithelial cells; for inhibition of the normal epithelial cells (selective cytotoxicity in cancer cell lines), in words: 20 μM, 24 h
Method: as §1, §2

[1] = Body weight of xenograft mice; format: in vivo; details: 0–12 days, ip once a day; CA10 10 and 20 mg/kg, curcumin 50 mg/kg
Source text: (§3) All animal experiments complied with the Wenzhou Medical University's Policy on the Care and Use of Laboratory Animals. Protocols for animal studies were approved by the Wenzhou Medical University Animal Policy and Welfare Committee (Approved documents: 2016/201). Athymic BALB/c nu/nu female mice weighing 20–22 g (6 weeks old) were purchased from Vital River Laboratories (Beijing, China). Animals were housed (6 animals/gage) at a constant room temperature with a 12/12-hr light/dark cycle and fed a standard rodent diet and water ad libitum. SGC-7901 cells were injected subcutaneously into the right flank of each mice at 1 × 10^6 cells in 0.1 mL PBS. Once tumors reached a volume of 100–200 mm^3, mice were randomly divided into 4 groups. These groups included mice treated with 10 mg/kg CA10, mice treated with 20 mg/kg CA10, mice treated 50 mg/kg curcumin, and control mice receiving vehicle alone. All treatments were carried out with intraperitoneal injections. The body weight and tumor volumes were monitored and determined by measuring length (l) and width (w) and calculated as tumor volume (V = 0.5 × l × w2) at the indicated time points. At the end of treatment period, mice were sacrificed and the tumors were removed and weighed for histological analyses and proteins measurement studies.

[2] = system: SGC-7901 xenograft tumors; assay: In vivo mouse xenograft model, tumor growth; design: species or system mice; details: ip once a day for 12 days, CA10 10 and 20 mg/kg, curcumin 50 mg/kg
Source text: as §3

Compound	inhibition at 20 µM (HT-29) [%]	% Of growth inhibition HCT-116 (HCT-116) [%]	inhibition at 20 µM (HCT-116) [%]	inhibition at 20 µM (SW-480) [%]	inhibition at 20 µM (SGC-7901; SGC-7901, 24 h) [%]	inhibition at 20 µM (BGC-823) [%]	inhibition at 20 µM (GES-1) [%]	% Of growth inhibition SW-480 (SW-480) [%]	inhibition of the normal epithelial cells (selective cytotoxicity in cancer cell lines), in words (GES-1)	body weight of mice [1]	IC50 (SGC-7901; SGC-7901, 24 h) [µM]	IC50 (SGC-7901; SGC-7901, 48 h) [µM]	IC50 (BGC-823; BGC-823, 24 h) [µM]	IC50 (BGC-823; BGC-823, 48 h) [µM]	tumor weight and volume [2]
C=CCc1cc(/C=C2\CN(C3CC3)C/C(=C\c3ccc(N4CCOCC4)cc3)C2=O)ccc1O [CA12]	< 60	70.99 ± 3.12	70	33.8 ± 1.98	52.5 ± 5.54	40.1 ± 4.65	40 ± 3.29	–	–	–	–	–	–	–	–
C=CCc1cc(/C=C2\CN(C3CC3)C/C(=C\c3c(OC)cc(OC)cc3OC)C2=O)ccc1O [CA18]	63 ± 4.2	–	74.8 ± 1.25	–	61.3 ± 4.02	57.96 ± 0.01	57.8 ± 3.58	56.88 ± 3.82	–	–	–	–	–	–	–
C=CCc1cc(/C=C2\CN(C3CC3)C/C(=C\c3ccc(N(C)C)cc3)C2=O)ccc1O [CA15]	< 60	43.17 ± 8.26	55	36.3 ± 1.7	50.5 ± 4.3	50.6 ± 2.49	23.8 ± 4.79	–	minimal inhibition	–	–	–	–	–	–
C=CCc1cc(/C=C2\CCC/C(=C\c3ccc(O)c(CC=C)c3)C2=O)ccc1O [CA7]	79.5 ± 4.1	–	67 ± 4.92	71.7 ± 1.15	> 80	71.2 ± 3.07	> 60	–	–	–	–	–	–	–	–
C=CCc1cc(/C=C2\CN(C3CC3)C/C(=C\c3ccc(OC)c(OC)c3)C2=O)ccc1O [CA17]	< 60	–	78.1 ± 64	64.7 ± 4.65	73.7 ± 1.26	37 ± 4.35	61.9 ± 1.41	–	–	–	–	–	–	–	–
C=CCc1cc(/C=C2\CN(CCC)C/C(=C\c3ccc(O)c(CC=C)c3)C2=O)ccc1O [CA2]	67 ± 6.79	–	60.6 ± 0.98	76 ± 6.31	79.8 ± 0.9	63 ± 8.7	60.88 ± 0.41	–	–	–	–	–	–	–	–
C=CCc1cc(/C=C2\CN(S(=O)(=O)c3ccccc3)C/C(=C\c3ccc(O)c(CC=C)c3)C2=O)ccc1O [CA5]	71.2 ± 1.99	43.04 ± 4.24	55	77.1 ± 3.79	> 80	63.3 ± 5.52	63.8 ± 2.33	–	–	–	–	–	–	–	–
C=CCc1cc(/C=C2\CN(C3CC3)C/C(=C\c3ccc(O)c(CC=C)c3)C2=O)ccc1O [CA4]	74.3 ± 0.79	44.18 ± 6.18	55	81 ± 5.36	77.8 ± 1.98	67.06 ± 0.4	63.4 ± 2.67	–	–	–	–	–	–	–	–
C=CCc1cc(/C=C2\CSC/C(=C\c3ccc(O)c(CC=C)c3)C2=O)ccc1O [CA9]	75.7 ± 2.18	–	67.3 ± 5.03	78 ± 5.69	> 80	69.3 ± 3.13	> 60	–	–	–	–	–	–	–	–
C=CCc1cc(/C=C2\CN(C3CC3)C/C(=C\c3ccc(OC(C)(C)C)cc3)C2=O)ccc1O [CA20]	71.16 ± 0.6	73.62 ± 4.23	70	61.5 ± 6.1	> 80	56.8 ± 0.81	25.8 ± 1.86	–	minimal inhibition	–	–	–	–	–	–
C=CCc1cc(/C=C2\CN(C3CC3)C/C(=C\c3ccc(OC)cc3OC)C2=O)ccc1O [CA19]	62.6 ± 7.39	–	78.1 ± 4.72	60.4 ± 3.1	76.6 ± 5.18	59.2 ± 3.67	62 ± 4.58	–	–	–	–	–	–	–	–
C=CCc1cc(/C=C2\CN(C3CC3)C/C(=C\c3cc(OC)c(OC)cc3OC)C2=O)ccc1O [CA16]	68 ± 1.39	–	60.1 ± 2.02	33.8 to 57	60 ± 7.35	60.7 ± 5.64	41.3 ± 5.22	35.69 ± 5.91	–	–	–	–	–	–	–
C=CCc1cc(/C=C2\CN(CC)C/C(=C\c3ccc(O)c(CC=C)c3)C2=O)ccc1O [CA1]	< 60	50.22 ± 7.62	55	71.3 ± 3.35	66.1 ± 8.88	60.4 ± 0.62	22.8 ± 3.04	–	minimal inhibition	–	–	–	–	–	–
C=CCc1cc(/C=C2\CN(Cc3ccccc3)C/C(=C\c3ccc(O)c(CC=C)c3)C2=O)ccc1O [CA6]	79.7 ± 3.11	72.58 ± 2.72	70	79.1 ± 4.2	> 80	65.83 ± 0.52	22.6 ± 6.08	–	minimal inhibition	–	–	–	–	–	–
C=CCc1cc(/C=C2\CN(C3CC3)C/C(=C\c3ccc(N(CC)CC)cc3)C2=O)ccc1O [CA14]	< 60	52.10 ± 9.05	55	57 ± 3.57	> 80	40.4 ± 5.7	47.9 ± 8.09	–	–	–	–	–	–	–	–
C=CCc1cc(/C=C2\COC/C(=C\c3ccc(O)c(CC=C)c3)C2=O)ccc1O [CA8]	71.1 ± 2.6	38.83 ± 4.23	55	79.3 ± 4.37	> 80	71.2 ± 1.07	27 ± 3.4	–	–	–	–	–	–	–	–
COc1cc(/C=C/C(=O)CC(=O)/C=C/c2ccc(O)c(OC)c2)ccc1O [curcumin]	–	–	–	–	–	–	–	–	–	no change	62.2 ± 2.08	36.9 ± 3.17	54.4 ± 3.92	38.2 ± 1.02	significant reduction
C=CCc1cc(/C=C2\CN(C3CC3)C/C(=C\c3ccc(N4CCN(C)CC4)cc3)C2=O)ccc1O [CA11]	63.3 ± 1.31	52.05 ± 1.91	55	49.5 ± 6.47	61 ± 4.97	61.33 ± 0.48	45.56 ± 0.39	–	–	–	–	–	–	–	–
